Series [1] is described as follows: Storage stability at 20° C. and 25° C. calculated by Arrhenius equation, Example 4A. The class given is physicochemical. To be noted: for possible storage period in the stable state: β cryptoxanthin-containing waters of Example 1A, 2A, and 3A, from storage at 40° C. for 2 months. The procedure: With respect to each of the β cryptoxanthin-containing waters prepared in Examples 1A, 2A, and 3A, storage stability at 20° C. and 25° C. was determined.
The storage stability was calculated by the following method with reference to the publication below. Conditions were described in the publication, hereby incorporated herein by reference. • Sumie Yoshioka (1995), “Iyakuhin no Anzensei—yoriyoi Kaihatsu to Hyoka notameno Kiso kara Jissai made—(Drug safety—principles and practices for improving development and evaluation—), Nankodo Co., Ltd.
Specifically, a graph of FIG. 185 on page 95 of the publication was cited. FIG. 1 is an Arrhenius plot of degradation of thiamine hydrochloride in a vitamin complex liquid agent, the Y axis indicates log Kobs (day^−1), and the X axis indicates 1/T (K^1). The stable periods were calculated based on the activation energy for degradation of thiamine hydrochloride in the vitamin complex liquid agent, shown in the graph.
In FIG. 1, the Y axis is indicated by not ln, but log. Therefore log Kobs was converted into ln k.
Then, −Ea/R and ln A were calculated from the ln k and 1/T (K^−1) on the X axis of FIG. 1 based on the Arrhenius equation represented by the formula (1) below.

Series [2] can be described thus: β cryptoxanthin stabilizing test, Example 1B (water from paste, varied β cryptoxanthin concentration, stored at 45° C.). The class given is physicochemical. How it is done:
(§1) The prepared paste derived from Citrus unshiu and water were mixed. Thus, β cryptoxanthin-containing waters were prepared. In the mixing, concentrations of the β cryptoxanthin were set to predetermined parts by mass with respect to 100 parts by mass of a combination of the water and components contained in the water. The predetermined parts by mass were 0.0031, 0.0044, 0.0062, 0.0086, 0.0176, and 0.0244 parts by mass. Thus, six types of β cryptoxanthin-containing waters each having a different concentration of the β cryptoxanthin were prepared. Each of the β cryptoxanthin-containing waters was sufficiently stirred. Thereafter 90 g of the resultant β cryptoxanthin-containing water was filled in an aluminum pouch, which was then sterilized under the condition at 85° C. for 30 minutes. As a comparative example, two types of β cryptoxanthin-containing waters were prepared in the same manner as described above except that the concentrations of the β cryptoxanthin were set to 0.0011 and 0.0016 parts by mass.
Six types of the β cryptoxanthin-containing waters of the example and two types of β cryptoxanthin-containing waters of the comparative example were stored at 45° C. for one month. Sampling was conducted on a storage start date and after one month from the storage start date. The respective amounts of β cryptoxanthin in samples were measured by HPLC as shown below. Then, assuming that the amount of β cryptoxanthin on the storage start date was 100%, residual ratios of β cryptoxanthin were determined.
The samples were treated at 70° C. for 30 minutes under alkaline conditions before being subjected to HPLC. By this treatment, β cryptoxanthin in the samples was saponified and was converted to a free form. After the treatment, the samples were subjected to a liquid-liquid extraction and were then concentrated. Concentrated samples thus obtained were used as samples for HPLC.
In the measurements of the amounts of β cryptoxanthin by HPLC, a HPLC system to which a column (J′sphere ODS-M80 (product name) with 250×4.6 mm I.D, produced by YMC Co., Ltd.) had been connected was used, and absorbances at 455 nm were measured by a UV detector (L-4200H (product name), produced by Hitachi Ltd.). Conditions of the column were as follows. • Mobile phase: acetonitrile/tetrahydrofuran (volume ratio: 95/5) containing 0.1% acetic acid and 50 ppm of α-tocopherol • Flow rate: 1.0 mL/minute • Column temperature: 55° C.

Series [3] is described as follows: β cryptoxanthin stabilizing test, Example 2B (water from powder, varied β cryptoxanthin concentration, stored at 45° C.). It counts as physicochemical. The procedure:
The prepared powder derived from Citrus unshiu and water were mixed. Thus, β cryptoxanthin-containing waters were prepared. In the mixing, concentrations of the β cryptoxanthin were set to predetermined parts by mass with respect to 100 parts by mass of a combination of the water and components contained in the water. The predetermined parts by mass were 0.0005, 0.0010, 0.0022, 0.0031, 0.0060, and 0.0079 parts by mass. Thus, six types of β cryptoxanthin-containing waters each having a different concentration of the β cryptoxanthin were prepared. Each of the β cryptoxanthin-containing waters was sufficiently stirred. Thereafter 90 g of the resultant β cryptoxanthin-containing water was filled in an aluminum pouch, which was then sterilized under the condition at 85° C. for 30 minutes. Six types of the β cryptoxanthin-containing waters of the example were stored at 45° C. for one month. Sampling was conducted on a storage start date and after one month from the storage start date. The respective amounts of β cryptoxanthin in samples were measured by HPLC in the same manner as in Example 1B. Then, assuming that the amount of β cryptoxanthin on the storage start date was 100%, residual ratios of β cryptoxanthin were determined.

A short description of series [4]: β cryptoxanthin stabilizing test, Example 3B (water from concentrated liquid, varied β cryptoxanthin concentration, stored at 45° C.). It counts as physicochemical. The procedure: as §1, with “concentrated liquid” for “paste”, “0.0007, 0.0015, 0.0025, 0.0053,” for “0.0031, 0.0044, 0.0062, 0.0086, 0.0176,”, “0.0072” for “0.0244”, “five” for “six”, “minutes.” for “minutes. As a comparative example, two types of β cryptoxanthin-containing waters were prepared in the same manner as described above except that the concentrations of the β cryptoxanthin were set to 0.0011 and 0.0016 parts by mass.”
Five types of the β cryptoxanthin-containing waters of the example were stored at 45° C. for one month. Sampling was conducted on a storage start date and after one month from the storage start date. The respective amounts of β cryptoxanthin in samples were measured by HPLC in the same manner as in Example 1B. Then, assuming that the amount of β cryptoxanthin on the storage start date was 100%, residual ratios of β cryptoxanthin were determined.

For series [5] the following is noted: compound of structural formula (1); stated as known; cited from earlier work.

We go through one compound from US20120156333A1, “STABILIZED BETA CRYPTOXANTHIN-CONTAINING WATER AND THE USE THEREOF” (ARKRAY, INC., priority 2010, published 2012).

As for `CC1=C(/C=C/C(C)=C/C=C/C(C)=C/C=C/C=C(C)/C=C/C=C(C)/C=C/C2=C(C)C[C@@H](O)CC2(C)C)C(C)(C)CCC1` [β cryptoxanthin], in series [1] (Example 4A, normal temperature (20° C. to 25° C.)), the “storage in a stable state at normal temperature” value was “two years or more”. Besides, the “possible storage period in the stable state” value in series [1] (20° C.) was “about 34 months”; in series [1] (25° C.) it was “about 16.2 months”. Besides, the “Residual ratio of β cryptoxanthin Storage for one month (%)” value (shortened to “Residual ratio … (%)”) was 52.5% in series [2] (Comparative Example, β cryptoxanthin 0.0011 parts by mass (paste) in water); 59.0% in series [2] (Comparative Example, β cryptoxanthin 0.0016 parts by mass (paste) in water); 84.8% in series [2] (Example, β cryptoxanthin 0.0031 parts by mass (paste) in water); 87.8% in series [2] (Example, β cryptoxanthin 0.0044 parts by mass (paste) in water); 97.0% in series [2] (Example, β cryptoxanthin 0.0062 parts by mass (paste) in water); 95.3% in series [2] (Example, β cryptoxanthin 0.0086 parts by mass (paste) in water). Also, the “Residual ratio … (%)” value was 93.2% in series [2] (Example, β cryptoxanthin 0.0176 parts by mass (paste) in water); 105.9% in series [2] (Example, β cryptoxanthin 0.0244 parts by mass (paste) in water); 5.3% in series [3] (β cryptoxanthin 0.0005 parts by mass (powder) in water); 45.6% in series [3] (β cryptoxanthin 0.0010 parts by mass (powder) in water); 75.5% in series [3] (β cryptoxanthin 0.0022 parts by mass (powder) in water); 82.4% in series [3] (β cryptoxanthin 0.0031 parts by mass (powder) in water). In addition, the “Residual ratio … (%)” value in series [3] (β cryptoxanthin 0.0060 parts by mass (powder) in water) stood at 97.9%; in series [3] (β cryptoxanthin 0.0079 parts by mass (powder) in water), 101.1%; in series [4] (β cryptoxanthin 0.0007 parts by mass (concentrated liquid) in water), 42.6%; in series [4] (β cryptoxanthin 0.0015 parts by mass (concentrated liquid) in water) it was 78.0%; in series [4] (β cryptoxanthin 0.0025 parts by mass (concentrated liquid) in water) it was 95.8%; in series [4] (β cryptoxanthin 0.0053 parts by mass (concentrated liquid) in water), 96.6%. Besides, the “Residual ratio … (%)” value in series [4] (β cryptoxanthin 0.0072 parts by mass (concentrated liquid) in water) is on record as 100.8%. The solubility in water entry in series [5] is listed as “poorly soluble in water”.
